# Results: PubChem BioAssay (NCI)
#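 All cell lines were grown in 96-well plates and treated with compound for 48 hours. At the GI50, growth is halved. TGI marks complete inhibition of growth.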
# Tests used:
# Test in all cases: inhibition of tumour cell growth, NCI panel, 48 h
# [1] = test system: UO-31 renal
# [2] = test system: OVCAR-4 ovarian
# [3] = test system: SK-MEL-28 melanoma
# [4] = test system: SR leukemia
# [5] = test system: HOP-92 NSCLC
# [6] = test system: UACC-62 melanoma
# [7] = test system: HCT-15 colon
# [8] = test system: NCI-H23 lung
# [9] = test system: SW-620 colon
# [10] = test system: SK-MEL-5 melanoma
# [11] = test system: SF-268 CNS
# [12] = test system: CCRF-CEM leukemia
# [13] = test system: NCI-H522 lung
# [14] = test system: IGROV1 ovarian
# [15] = test system: MOLT-4 leukemia
# [16] = test system: HT29 colon
# [17] = test system: COLO 205 colon
# [18] = test system: U251 CNS
# [19] = test system: CAKI-1 renal
# [20] = test system: A549 NSCLC
# [21] = test system: HCC-2998 colon
# [22] = test system: BT-549 breast
# [23] = test system: NCI/ADR-RES ovarian
# [24] = test system: HS 578T breast
# [25] = test system: 786-0 renal
# [26] = test system: RPMI-8226 leukemia
# [27] = test system: UACC-257 melanoma
# [28] = test system: K-562 leukemia
# [29] = test system: NCI-H460 lung
# [30] = test system: SNB-75 CNS
# [31] = test system: OVCAR-8 ovarian
# [32] = test system: OVCAR-3 ovarian
# [33] = test system: SN12C renal
# [34] = test system: A498 renal
# [35] = test system: PC-3 prostate
# [36] = test system: HL-60(TB) leukemia
# [37] = test system: SF-539 CNS
# [38] = test system: MDA-MB-435
# [39] = test system: MALME-3M melanoma
# [40] = test system: EKVX NSCLC
# [41] = test system: MDA-MB-468 breast
# [42] = test system: KM12 colon
# [43] = test system: MCF7 breast
# [44] = test system: SF-295 CNS
# [45] = test system: HCT-116 colon
# [46] = test system: SK-MEL-2 melanoma
# [47] = test system: DU-145 prostate
# [48] = test system: LOX IMVI melanoma
# [49] = test system: TK-10 renal
# [50] = test system: M14 melanoma
# [51] = test system: SK-OV-3 ovarian
# [52] = test system: ACHN renal
# [53] = test system: HOP-62 NSCLC
# [54] = test system: MDA-MB-231 breast
# [55] = test system: NCI-H226 lung
# [56] = test system: OVCAR-5 ovarian
# [57] = test system: RXF 393 renal
# [58] = test system: SNB-19 CNS
# [59] = test system: T-47D breast
smiles,measurement,setting,value
C=CCn1c(SCC(=O)Nc2ccc(C(=O)/C=C/c3ccccc3)cc2)nnc1-c1c[nH]c2ccccc12,GI50,[1],5.28 µM
same,TGI,[1],23.1 µM
same,GI50,[2],7.07 µM
same,TGI,[2],> 100 µM
same,GI50,[3],13.5 µM
same,TGI,[3],27.9 µM
same,GI50,[4],6.09 µM
same,TGI,[4],92.4 µM
same,GI50,[5],6.54 µM
same,TGI,[5],> 100 µM
same,GI50,[6],9.27 µM
same,TGI,[6],> 100 µM
same,GI50,[7],2370 nM
same,TGI,[7],5.53 µM
same,GI50,[8],14.4 µM
same,TGI,[8],29.8 µM
same,GI50,[9],8.21 µM
same,TGI,[9],25.5 µM
same,GI50,[10],3.91 µM
same,TGI,[10],15 µM
same,GI50,[11],10.9 µM
same,TGI,[11],> 100 µM
same,GI50,[12],5.58 µM
same,TGI,[12],> 100 µM
same,GI50,[13],12.4 µM
same,TGI,[13],80.3 µM
same,GI50,[14],22.5 µM
same,TGI,[14],86.3 µM
same,GI50,[15],4.37 µM
same,TGI,[15],> 100 µM
same,GI50,[16],3.27 µM
same,TGI,[16],12.3 µM
same,GI50,[17],17.6 µM
same,TGI,[17],38.2 µM
same,GI50,[18],6.65 µM
same,TGI,[18],19.9 µM
same,GI50,[19],12.1 µM
same,TGI,[19],> 100 µM
same,GI50,[20],12.1 µM
same,TGI,[20],51.9 µM
same,GI50,[21],2690 nM
same,TGI,[21],7.56 µM
same,GI50,[22],13.1 µM
same,TGI,[22],28.7 µM
same,GI50,[23],32.2 µM
same,TGI,[23],> 100 µM
same,GI50,[24],9.05 µM
same,TGI,[24],> 100 µM
same,GI50,[25],20.7 µM
same,TGI,[25],44 µM
same,GI50,[26],2360 nM
same,TGI,[26],7.39 µM
same,GI50,[27],20.5 µM
same,TGI,[27],88.7 µM
same,GI50,[28],3.37 µM
same,TGI,[28],> 100 µM
same,GI50,[29],40.8 µM
same,TGI,[29],> 100 µM
same,GI50,[30],2690 nM
same,TGI,[30],> 100 µM
same,GI50,[31],36 µM
same,TGI,[31],> 100 µM
same,GI50,[32],9.93 µM
same,TGI,[32],56.4 µM
same,GI50,[33],27.7 µM
same,TGI,[33],> 100 µM
same,GI50,[34],16.7 µM
same,TGI,[34],38.5 µM
same,GI50,[35],5.25 µM
same,TGI,[35],64.4 µM
same,GI50,[36],12.7 µM
same,TGI,[36],> 100 µM
same,GI50,[37],11.8 µM
same,TGI,[37],24.6 µM
same,GI50,[38],3.08 µM
same,TGI,[38],10.6 µM
same,GI50,[39],50.6 µM
same,TGI,[39],> 100 µM
same,GI50,[40],10.7 µM
same,TGI,[40],> 100 µM
same,GI50,[41],4.41 µM
same,TGI,[41],17.4 µM
same,GI50,[42],12.6 µM
same,TGI,[42],37.9 µM
same,GI50,[43],1860 nM
same,TGI,[43],4.62 µM
same,GI50,[44],5.85 µM
same,TGI,[44],37 µM
same,GI50,[45],1890 nM
same,TGI,[45],3.99 µM
same,GI50,[46],11.2 µM
same,TGI,[46],55.4 µM
same,GI50,[47],25 µM
same,TGI,[47],> 100 µM
same,GI50,[48],2140 nM
same,TGI,[48],5.34 µM
same,GI50,[49],> 100 µM
same,TGI,[49],> 100 µM
same,GI50,[50],12 µM
same,TGI,[50],37.5 µM
same,GI50,[51],14.7 µM
same,TGI,[51],32.4 µM
same,GI50,[52],11.6 µM
same,TGI,[52],> 100 µM
same,GI50,[53],47.5 µM
same,TGI,[53],> 100 µM
same,GI50,[54],11.3 µM
same,TGI,[54],42.9 µM
same,GI50,[55],7.06 µM
same,TGI,[55],30.6 µM
same,GI50,[56],> 100 µM
same,TGI,[56],> 100 µM
same,GI50,[57],3.93 µM
same,TGI,[57],17.9 µM
same,GI50,[58],20 µM
same,TGI,[58],> 100 µM
same,GI50,[59],3.78 µM
same,TGI,[59],62.3 µM
